From patent US5665777A, “Biphenyl hydroxamate inhibitors of matrix metalloproteinases” (Abbott Laboratories, priority 1995, dated 1997) come the findings set out here.

One assay deals with TNFα secretion. The experiment in a line: HL-60 TNFα Release Assay (inhibition of TNFα secretion, ELISA). It is filed as cell-based. The following applies: Homo sapiens, HL-60 cells, 40 nM phorbol myristate acetate, 20 hr at 37° C. How it is done: The inhibition of TNFα secretion by the compounds of this invention was determined using a HL-60 TNFα Release Assay. HL-60 cells were cultured in RPMI 1640 with 10% fetal bovine serum and penicillin/streptomycin. HL-60 cells (150,000 cells/well) were placed in 96 well culture plates in RPMI 1640 with 10% fetal bovine serum and pen/strep containing 40 nM phorbol myristate acetate and test compound in DMSO (final DMSO 0.1%). HL-60 cells were then cultured for 20 hr at 37° C. (95% humidity) after which cell supernatants were collected for analysis of TNFα by ELISA.
Background: In an ELISA, binding on a coated surface is turned into a signal by an enzyme label.

A further assay has as its target T1, stromelysin (Homo sapiens, UniProt P08254).
T1 construct: made in house; host or cells: E. coli
Briefly: Determination of stromelysin inhibition (cleavage of thiopeptide ester substrate, DTNB readout). The format is biochemical. The following applies: for IC50: recombinant truncated human stromelysin, pH 6.5, 30 min, ambient temperature, read-out: IC50, inhibitory potency against stromelysin. The procedure: The inhibition of stromelysin by the compounds of this invention was determined as follows: Recombinant truncated stromelysin (human sequence) produced in E. coli was prepared by expression and purification of the protein as described by Ye et al., Biochemistry, 1992, 31, 11231-11235. The enzyme was assayed by its cleavage of the thiopeptide ester substrate Ac-Pro-Leu-Gly-[2-mercapto-4-methyl-pentanoyl]-Leu-Gly-OEt described by Weingarten and Feder, Anal Biochem., 1985, 147, 437-440 (1985), as a substrate of vertebrate collagenase. The reported conditions were modified to allow assays to be carried out in a microtiter plate. Upon hydrolysis of the thioester bond, the released thiol group reacts rapidly with 5,5'-dithio-bis(2-nitrobenzoic acid) (DTNB), producing a yellow color which is measured by a microtiter plate reader set al 405 nm. The rates of cleavage of the substrate by stromelysin in the presence or absence of inhibitors are measured in a 30 min assay at ambient temperature. Solutions of the compounds in DMSO are prepared, and these are diluted at various concentrations into the assay buffer (50 mM MES/NaOH pH 6.5 with 10 mM CaCl2 and 0.2% Pluronic F-68), which is also used for dilution of the enzyme and substrate. The potency of the compounds [IC50 ] are calculated from the inhibition/inhibitor concentration data.

For orientation: inhibition means the share of the control response that was lost under treatment. Higher therefore signals strong suppression. A word on the IC50: it is the concentration that inhibits the measured activity by half.

T1 sequence (P08254 100-273 limits assumed): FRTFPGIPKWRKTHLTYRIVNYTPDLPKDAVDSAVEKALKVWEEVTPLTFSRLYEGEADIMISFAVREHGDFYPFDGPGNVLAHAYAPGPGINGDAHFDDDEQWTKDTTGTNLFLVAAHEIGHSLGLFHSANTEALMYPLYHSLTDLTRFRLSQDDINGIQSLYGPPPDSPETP

`O=C(CCCOc1ccc(-c2ccccc2)cc1)NO` [Example 1, 4-(4-phenylphenoxy)butanohydroxamic acid] yielded an inhibition at 16 µM in the assay with TNFα secretion of 27%. Molecule `O=C(CCCOc1cccc(-c2ccccc2)c1)NO` [Example 2, 4-(3-phenylphenoxy)butanohydroxamic acid] had an inhibition at 100 µM against stromelysin of 5%. On to `N#Cc1ccc(-c2ccc(OCCCC(=O)NO)cc2)cc1` [Example 3, 4-[4-(4-cyanophenyl)phenoxy]butanohydroxamic acid], for which, on stromelysin, the IC50 is 3500 nM. Consider `N#Cc1cccc(-c2ccc(OCCCC(=O)NO)cc2)c1` [Example 4, 4-[4-(3-cyanophenyl)phenoxy]butanohydroxamic acid], for which the IC50 on stromelysin is 46000 nM. In addition, the inhibition at 16 µM with TNFα secretion was determined as 64%.

With `N#CCc1ccc(-c2ccc(OCCCC(=O)NO)cc2)cc1` [Example 5, 4-[4-(4-cyanomethylphenyl)phenoxy]butanohydroxamic acid], on stromelysin, the IC50 amounted to 21000 nM. Moreover, in the assay on TNFα secretion, at 16 µM the inhibition was 82%. As to `N#CCc1cccc(-c2ccc(OCCCC(=O)NO)cc2)c1` [Example 6, 4-[4-(3-cyanomethylphenyl)phenoxy]butanohydroxamic acid], the concentration for half-maximal inhibition (IC50) at stromelysin worked out at 1900 nM. Moreover, the inhibition at 16 µM with TNFα secretion came out at 40%. Turning to `O=C(CCCOc1ccc(-c2ccc(Cl)cc2)cc1)NO` [Example 7, 4-[4-(4-chlorophenyl)phenoxy]butanohydroxamic acid], 100 µM produced 47% inhibition against stromelysin. The inhibition at 16 µM in the assay with TNFα secretion was found to be 35%. For the molecule `CCCc1ccc(-c2ccc(OCCCC(=O)NO)cc2)cc1` [Example 8, 4-[4-(4-propylphenyl)phenoxy]butanohydroxamic acid], at stromelysin, the IC50 worked out at 10000 nM. Further, in the assay on TNFα secretion, 16 µM produced 35% inhibition. As for `COc1ccc(-c2ccc(OCCCC(=O)NO)cc2)cc1` [Example 9, 4-[4-(4-methoxyphenyl)phenoxy]butanohydroxamic acid], the IC50 on stromelysin stood at 34000 nM. Regarding `O=C(CCCCCCOc1ccc(-c2ccccc2)cc1)NO` [Example 10, 7-(4-phenylphenoxy)heptanohydroxamic acid], the inhibition at 100 µM against stromelysin was 45%. In the case of `N#Cc1ccc(-c2ccc(OCCCCCCC(=O)NO)cc2)cc1` [Example 11, 7-[4-(4-cyanophenyl)phenoxy]heptanohydroxamic acid], the IC50 at stromelysin stood at 2300 nM. This molecule had an inhibition at 16 µM with TNFα secretion of 77%. `O=C(CCCCOc1cccc(-c2ccc(F)cc2)c1)NO` [Example 12, 5-[3-(4-fluorophenyl)phenoxy]pentanohydroxamic acid] gave an inhibition at 100 µM at stromelysin of 20%. This molecule yielded an inhibition at 16 µM in the assay on TNFα secretion of 62%.

Take `N#Cc1cccc(-c2cccc(OCCCCC(=O)NO)c2)c1` [Example 13, 5-[3-(3-cyanophenyl)phenoxy]pentanohydroxamic acid]: the inhibition at 100 µM against stromelysin is 24%. For the same molecule, testing at 16 µM in the assay with TNFα secretion gave an inhibition of 67%. `N#Cc1ccc(-c2cccc(OCCCCC(=O)NO)c2)cc1` [Example 14, 5-[3-(4-cyanophenyl)phenoxy]pentanohydroxamic acid]: the IC50 at stromelysin was 123000 nM. For the same molecule, in the assay on TNFα secretion, 16 µM produced 64% inhibition.

For the molecule `O=C(CCCOc1cccc(-c2ccc(F)cc2)c1)NO` [Example 15, 4-[3-(4-fluorophenyl)phenoxy]butanohydroxamic acid], the IC50 on stromelysin was determined as 74000 nM. Besides, the inhibition at 16 µM in the assay with TNFα secretion turned out to be 63%. For `N#Cc1ccc(-c2cccc(OCCCC(=O)NO)c2)cc1` [Example 16, 4-[3-(4-cyanophenyl)phenoxy]butanohydroxamic acid], on stromelysin, the IC50 amounted to 24000 nM. The same measure, in the same setting: the same measure for `N#Cc1cccc(-c2cccc(OCCCC(=O)NO)c2)c1` [Example 17, 4-[3-(3-cyanophenyl)phenoxy]butanohydroxamic acid]: 2500 nM. On to `O=C(CCCCOc1cccc(-c2ccccc2)c1)NO` [Example 18, 5-[3-phenylphenoxy]pentanohydroxamic acid], for which the IC50 on stromelysin amounted to 74000 nM. The molecule also came in with an inhibition at 16 µM with TNFα secretion of 62%. Regarding `O=C(CCCCOc1ccc(-c2ccccc2)cc1)NO` [Example 19, 5-[4-phenylphenoxy]pentanohydroxamic acid], 16 µM produced 61% inhibition with TNFα secretion. Still for that read-out and setting: the same measure for `N#Cc1ccc(-c2ccc(OCCCCC(=O)NO)cc2)cc1` [Example 20, 5-[4-(4-cyanophenyl)phenoxy]pentanohydroxamic acid]: 50%. On to `O=C(CCCCCOc1ccc(-c2ccccc2)cc1)NO` [Example 21, 6-[4-phenylphenoxy]hexanohydroxamic acid], for which the IC50 on stromelysin was found to be 77000 nM.

In turn, `O=C(CCOc1cccc(-c2ccccc2)c1)NO` [Example 24, 3-(3-phenylphenoxy)propanohydroxamic acid] had an inhibition at 10 µM on stromelysin (@ 10 μM) of 14%. This molecule came in with an inhibition at 16 µM with TNFα secretion of 59%. For the molecule `COc1ccc(-c2ccc(OCCC(=O)NO)cc2)cc1` [Example 26, 3-[4-(4-methoxyphenyl)phenoxy]propanohydroxamic acid], the IC50 at stromelysin stood at 79 nM.

Regarding `O=C(CCOc1ccc(-c2ccc(F)cc2)cc1)NO` [Example 27, 3-[4-(4-fluorophenyl)phenoxy]propanohydroxamic acid], the IC50 at stromelysin is 190 nM. For `C[C@@H](COc1ccc(-c2ccccc2)cc1)C(=O)NO` [Example 28, (S)2-methyl-3-(4-phenylphenoxy)propanohydroxamic acid], the IC50 on stromelysin was found to be 150 nM.

Consider `CNC(=O)C(CCOc1ccc(-c2ccc(C#N)cc2)cc1)CC(=O)NO` (stereo not shown) [Example 29, 3-(N-methylcarboxamido)-5-[4-(4-cyanophenyl)phenoxy]pentanohydroxamic acid], for which the IC50 at stromelysin is 350 nM. The same measure, in the same setting: in the case of `O=C(CCSc1ccc(-c2ccccc2)cc1)NO` [Example 30, 3-(4-biphenylthio)propanohydroxamic acid] it was 2100 nM; in that of `O=C(CSc1ccc(-c2ccccc2)cc1)NO` [Example 31, 2-(4-biphenylthio)ethanohydroxamic acid], 880 nM. The same measure, in the same setting: the same measure for `O=C(CCNc1ccc(-c2ccccc2)cc1)NO` [Example 32, 3-(4-biphenylamino)propanohydroxamic acid]: 4600 nM. `O=C(Cc1ccc(-c2ccccc2)cc1)NO` [Example 33, 2-(4-biphenyl)ethanohydroxamic acid] gave an inhibition at 100 µM against stromelysin of 14%. As to `O=C(CCCc1ccc(-c2ccccc2)cc1)NO` [Example 34, 4-(4-biphenyl)butanohydroxamic acid], the IC50 on stromelysin was 58000 nM. In the assay on TNFα secretion, at 16 µM the inhibition was 52%.

Regarding `N#Cc1ccc(-c2ccc(CCCC(=O)NO)cc2)cc1` [Example 35, 4-[4-(4-cyanophenyl)phenyl]butanohydroxamic acid], at stromelysin, the IC50 came out at 8300 nM. Same read-out and setting: the same measure for `O=C(CCc1ccc(-c2ccccc2)cc1)NO` [Example 37, 3-(4-biphenyl)propanohydroxamic acid]: 30000 nM.

`O=C(CCCCc1ccc(-c2ccccc2)cc1)NO` [Example 38, 5-(4-biphenyl)pentanohydroxamic acid]: the IC50 at stromelysin is 1000 nM. In the assay on TNFα secretion, the inhibition at 16 µM was 65%. The molecule `O=C(CCCCOc1ccc(-c2ccc(F)cc2)cc1)NO` [Example 39, 5-[4-(4-fluorophenyl)phenoxy]pentanohydroxamic acid] registered an inhibition at 100 µM against stromelysin of 47%.

With `O=C(CCCOc1ccc(-c2ccccc2)cc1O)NO` [Example 40, 4-(2-hydroxy-4-phenylphenoxy)butanohydroxamic acid], testing at 100 µM on stromelysin gave an inhibition of 39%. Still for that read-out and setting: the same measure for `O=C(CCCOc1cc(-c2ccccc2)ccc1O)NO` [Example 41, 4-(2-hydroxy-5-phenylphenoxy)butanohydroxamic acid]: 36%. In the case of `N#CCc1cccc(-c2ccc(OCCC(=O)NO)cc2)c1` [Example 42, 3-[4-(3-cyanomethylphenyl)phenoxy]propanohydroxamic acid], the IC50 at stromelysin is 15 nM. In the case of `CC(C)(C)OC(=O)CC(CCOc1ccc(-c2ccc(C#N)cc2)cc1)C(=O)NO` (stereo not shown) [Example 43, 2-tert-butyloxycarbonylmethyl-4-[4-(4-cyanophenyl)phenoxy]butanohydroxamic acid], the IC50 on stromelysin is 490 nM. Same read-out and setting: in the case of `N#CCc1ccc(-c2ccc(OCCC(=O)NO)cc2)cc1` [Example 44, 3-[4-(4-cyanomethylphenyl)phenoxy]propanohydroxamic acid] it was 190 nM; in that of `O=C(NO)C(O)COc1ccc(-c2ccccc2)cc1` (stereo not shown) [Example 45, 2-hydroxy-3-[(4-phenyl)phenoxy]propanohydroxamic acid], 2300 nM.
